Data as given in US8314217B2, “Cross-linked glycopeptide-cephalosporin antibiotics” (priority 2003, dated 2012).
Converted amounts (≈) assume the structure as drawn.

Tests used:
MRSA 33591 [1] = test: Minimal inhibitory concentration (MIC), broth microdilution; format: cell-based, methicillin-resistant Staphylococcus aureus; conditions: Staphylococcus aureus, read-out: MIC MRSA 33591
Procedure: (§1) Minimal inhibitory concentration (MICs) assays were performed using the broth microdilution method set forth in NCCLS guidelines (see, NCCLS. 2000. Methods for Dilution Antimicrobial Susceptibility Tests for Bacteria That Grow Aerobically; Approved Standard—Fifth Ed., Vol. 20, No. 2). Bacterial strains were obtained from the American Type Tissue Culture Collection (ATCC), Stanford University Hospital (SU), Kaiser Permanente Regional Laboratory in Berkeley (KPB), Massachusetts General Hospital (MGH), the Centers for Disease Control (CDC), the San Francisco Veterans' Administration Hospital (SFVA) or the University of California San Francisco Hospital (UCSF). Vancomycin-resistant enterococci were phenotyped as Van A or Van B based on their sensitivity to teicoplanin. Some vancomycin-resistant enterococci that had been genotyped as Van A, Van B, Van C1 or Van C2 were also obtained from the Mayo Clinic.
(§2) In this assay, cryopreserved bacterial cultures of reference and clinical strains were streaked for isolation on appropriate agar medium (i.e., Trypticase Soy Agar, Trypticase Soy Agar with defibrinated sheep erythrocytes, Brain Heart Infusion Agar, Chocolate Agar). Following incubation to allow formation of colonies, these plates were sealed with Parafilm® and stored refrigerated for up to two weeks. […] The MIC was read visually as the lowest concentration well with no bacterial growth. […]

MSSA 13709 = test: as above; format: cell-based, methicillin-susceptible Staphylococcus aureus; conditions: Staphylococcus aureus, read-out: MIC MSSA 13709
Procedure: as §1, §2

MRSA 33591 [2] = test: Time-kill assay; format: cell-based, methicillin-resistant Staphylococcus aureus; conditions: MRSA 33591, in 24 hours
Procedure: This time-kill assay is a method for measuring the rate of bactericidal activity of a test compound. […] A rapid time-kill is desirable to quickly prevent bacterial colonization and reduce host tissue damage.
Bacteria were diluted in prewarmed media in shake flasks and incubated with shaking (200 rpm, 35° C.). At 0, 1, 4, and 24 hours samples were withdrawn from the flasks and bacteria were enumerated by plate counting. Subsequent to the initial sampling, a compound to be assayed was added to the shake flask culture. Plate counts at these intervals previous to and following addition of the compound were expressed graphically in a time-kill curve.

[3] = test system: methicillin-susceptible Staphylococcus aureus (MSSA 13709) and methicillin-resistant Staphylococcus aureus (MRSA 33591); test: In vivo efficacy in neutropenic mice (thigh infection); design: species or system Male CD-1 mice; conditions: iv, 24 h, read-out: ED50 (dose required to produce 50% of the maximum reduction in thigh titre)
Procedure: Animals (Male CD-1 mice, 20-30 g) were acquired from Charles Rivers Laboratories (Gilroy, Calif.) and allowed access to food and water ad libitum. Neutropenia was induced via 200 mg/kg intraperitoneal (IP) injection of cyclophosphamide given four and two days prior to the inoculation of bacteria.
The organism used was either a susceptible or resistant strain of clinically relevant Gram-positive pathogens, such as methicillin-susceptible Staphylococcus aureus (MSSA 13709) and methicillin-resistant Staphylococcus aureus (MRSA 33591). The bacterial inoculum concentration was ˜10^6 CFU/mL. Animals were lightly anesthetized with isoflurane and […] of the bacterial inoculum was injected into the anterior thigh. One hour after the inoculation, animals were dosed intravenously with vehicle or the appropriate dose of the test compound. At 0 hours and 24 hours post-treatment, the animals were euthanized (CO2 asphyxiation) and the anterior and posterior thigh collected aseptically. The thigh was placed into 10 mL sterile saline and homogenized. Dilutions of the homogenate were plated onto triptic soy agar plates which were incubated overnight. The number of bacterial colonies on a given plate was multiplied by the dilution factor, divided by the thigh weight (in grams) and expressed as log CFU/g. […]

## CN[C@H](CC(C)C)C(=O)N[C@H]1C(=O)N[C@@H](CC(N)=O)C(=O)N[C@H]2C(=O)N[C@H]3C(=O)N[C@H](C(=O)N[C@H](C(=O)O)c4cc(O)cc(O)c4-c4cc3ccc4O)[C@H](O)c3ccc(c(Cl)c3)Oc3cc2cc(c3O[C@@H]2O[C@H](CO)[C@@H](O)[C@H](O)[C@H]2O[C@H]2C[C@](C)(N)[C@H](O)[C@H](C)O2)Oc2ccc(cc2Cl)[C@H]1O [Vancomycin]
MRSA 33591 [1]
  MIC: 2 µg/mL (≈ 1.38 µM)
MSSA 13709
  MIC: 1 µg/mL (≈ 0.69 µM)
MRSA 33591 [2]
  bactericidal concentration (≧3 log decrease in bacterial cell numbers): 4 μg/mL
[3]
  ED50: 9 mg/kg
